From ChEMBL document CHEMBL4190339, “Design, synthesis and preliminary biological evaluation of new [1,2,3]triazolo[4,5-d]pyrimidine/thiourea hybrids as antiproliferative agents” (Eur J Med Chem, 2017)
Activity calls are given as the source filed them. The calls are words filed in the database; no cut-off is given here.

System: NCI-H1650
Assay: Cell cycle arrest in human NCI-H1650 cells assessed as accumulation at G1 phase at 4 uM after 24 hrs by propidium iodide staining-based flow cytometry (reference value: 55.7%)
Type: functional
Settings: not given

Q: With `CCCSc1nc(NCCNC(=S)Nc2cccnc2)c2nnn(CCc3c[nH]c4ccccc34)c2n1` as the compound, how does the Activity read?
A: 27.2%

System: NCI-H1650
Assay: Induction of apoptosis in human NCI-H1650 cells assessed as necrotic cells at 2 uM after 24 hrs by Annexin-V-FITC/propidium iodide staining based flow cytometry (reference value: 3.22%)
Type: functional
Settings: not given

Q: With `CCCSc1nc(NCCNC(=S)Nc2cccnc2)c2nnn(CCc3c[nH]c4ccccc34)c2n1` as the compound, how does the Activity read?
A: 1.14%

System: NCI-H1650
Assay: Induction of apoptosis in human NCI-H1650 cells assessed as reduction in Bcl-2 expression up to 8 uM after 24 hrs by Western blot analysis
Type: functional, cell-based
Settings: not given

Q: Which Activity does the source give for `CCCSc1nc(NCCNC(=S)Nc2cccnc2)c2nnn(CCc3c[nH]c4ccccc34)c2n1` here?
A: Active

System: ECa-109 cell line
Assay: Antiproliferative activity against human EC109 cells after 48 hrs by MTT assay
Type: functional, cell-based
Settings: ECa-109, 48 h

Q: Which IC50 does the source give for `CCCSc1nc(NCCNC(=S)Nc2cccnc2)c2nnn(Cc3ccccc3)c2n1` here?
A: 10.8 µM

Q: Which IC50 does the source give for `CCCSc1nc(NCCNC(=S)Nc2cccnc2)c2nnn(CCc3c[nH]c4ccccc34)c2n1` here?
A: 8.12 µM

System: NCI-H1650
Assay: Induction of apoptosis in human NCI-H1650 cells assessed as viable cells at 2 uM after 24 hrs by Annexin-V-FITC/propidium iodide staining based flow cytometry (reference value: 83.6%)
Type: functional
Settings: NCI-H1650, 24 h, read-out: Activity

Q: For `CCCSc1nc(NCCNC(=S)Nc2cccnc2)c2nnn(CCc3c[nH]c4ccccc34)c2n1`, which viability at 2 µM is on record?
A: 51.1%

System: NCI-H1650
Assay: Cell cycle arrest in human NCI-H1650 cells assessed as accumulation at G1 phase at 8 uM after 24 hrs by propidium iodide staining-based flow cytometry (reference value: 55.7%)
Type: functional
Settings: not given

Q: Which Activity does the source give for `CCCSc1nc(NCCNC(=S)Nc2cccnc2)c2nnn(CCc3c[nH]c4ccccc34)c2n1` here?
A: 20.8%

System: NCI-H1650
Assay: Induction of apoptosis in human NCI-H1650 cells assessed as necrotic cells at 4 uM after 24 hrs by Annexin-V-FITC/propidium iodide staining based flow cytometry (reference value: 3.22%)
Type: functional
Settings: not given

Q: For `CCCSc1nc(NCCNC(=S)Nc2cccnc2)c2nnn(CCc3c[nH]c4ccccc34)c2n1`, which Activity is on record?
A: 1.38%

System: NCI-H1650
Assay: Cell cycle arrest in human NCI-H1650 cells assessed as accumulation at G2/M phase after 24 hrs by propidium iodide staining-based flow cytometry
Type: functional
Settings: not given

Q: Which Activity does the source give for `CCCSc1nc(NCCNC(=S)Nc2cccnc2)c2nnn(CCc3c[nH]c4ccccc34)c2n1` here?
A: Dose-dependent effect

System: NCI-H1650
Assay: Induction of apoptosis in human NCI-H1650 cells assessed as increase in early apoptotic cells after 24 hrs by Annexin-V-FITC/propidium iodide staining based flow cytometry
Type: functional, cell-based
Settings: not given

Q: For `CCCSc1nc(NCCNC(=S)Nc2cccnc2)c2nnn(CCc3c[nH]c4ccccc34)c2n1`, which Activity is on record?
A: Dose-dependent effect

System: NCI-H1650
Assay: Antiproliferative activity against human NCI-H1650 cells after 48 hrs by MTT assay
Type: functional, cell-based
Settings: NCI-H1650, 48 h

Q: For `CCCSc1nc(NCCNC(=S)Nc2cccnc2)c2nnn(Cc3ccccc3)c2n1`, which IC50 is on record?
A: 9.56 µM

Q: For `CCCSc1nc(NCCNC(=S)Nc2cccnc2)c2nnn(CCc3c[nH]c4ccccc34)c2n1`, which IC50 is on record?
A: 1.91 µM

System: NCI-H1650
Assay: Cell cycle arrest in human NCI-H1650 cells assessed as accumulation at G2/M phase at 4 uM after 24 hrs by propidium iodide staining-based flow cytometry (reference value: 12.4%)
Type: functional
Settings: not given

Q: Which Activity does the source give for `CCCSc1nc(NCCNC(=S)Nc2cccnc2)c2nnn(CCc3c[nH]c4ccccc34)c2n1` here?
A: 34.7%

System: NCI-H1650
Assay: Cell cycle arrest in human NCI-H1650 cells assessed as accumulation at G2/M phase at 8 uM after 24 hrs by propidium iodide staining-based flow cytometry (reference value: 12.4%)
Type: functional
Settings: not given

Q: Which Activity does the source give for `CCCSc1nc(NCCNC(=S)Nc2cccnc2)c2nnn(CCc3c[nH]c4ccccc34)c2n1` here?
A: 45.6%

System: MKN-45
Assay: Antiproliferative activity against human MKN45 cells after 48 hrs by MTT assay
Type: functional, cell-based
Settings: MKN-45, 48 h

Q: With `CCCSc1nc(NCCNC(=S)Nc2cccnc2)c2nnn(Cc3ccccc3)c2n1` as the compound, how does the IC50 read?
A: 15.1 µM

Q: With `CCCSc1nc(NCCNC(=S)Nc2cccnc2)c2nnn(CCc3c[nH]c4ccccc34)c2n1` as the compound, how does the IC50 read?
A: 3.22 µM

System: A549
Assay: Antiproliferative activity against human A549 cells after 48 hrs by MTT assay
Type: functional, cell-based
Settings: A549, 48 h

Q: Which IC50 does the source give for `CCCSc1nc(NCCNC(=S)Nc2cccnc2)c2nnn(Cc3ccccc3)c2n1` here?
A: 12 µM

Q: Which IC50 does the source give for `CCCSc1nc(NCCNC(=S)Nc2cccnc2)c2nnn(CCc3c[nH]c4ccccc34)c2n1` here?
A: 3.28 µM

System: NCI-H1650
Assay: Cell cycle arrest in human NCI-H1650 cells assessed as accumulation at S phase at 8 uM after 24 hrs by propidium iodide staining-based flow cytometry (reference value: 36.2%)
Type: functional
Settings: not given

Q: With `CCCSc1nc(NCCNC(=S)Nc2cccnc2)c2nnn(CCc3c[nH]c4ccccc34)c2n1` as the compound, how does the Activity read?
A: 38.4%

System: NCI-H1650
Assay: Cell cycle arrest in human NCI-H1650 cells assessed as accumulation at S phase at 4 uM after 24 hrs by propidium iodide staining-based flow cytometry (reference value: 36.2%)
Type: functional
Settings: not given

Q: Which Activity does the source give for `CCCSc1nc(NCCNC(=S)Nc2cccnc2)c2nnn(CCc3c[nH]c4ccccc34)c2n1` here?
A: 21.9%

System: NCI-H1650
Assay: Induction of apoptosis in human NCI-H1650 cells assessed as viable cells at 4 uM after 24 hrs by Annexin-V-FITC/propidium iodide staining based flow cytometry (reference value: 83.6%)
Type: functional
Settings: NCI-H1650, 24 h, read-out: Activity

Q: For `CCCSc1nc(NCCNC(=S)Nc2cccnc2)c2nnn(CCc3c[nH]c4ccccc34)c2n1`, which viability at 4 µM is on record?
A: 46.8%

System: GES1
Assay: Antiproliferative activity against human GES-1 cells after 48 hrs by MTT assay
Type: cell-based
Settings: GES1, 48 h

Q: With `CCCSc1nc(NCCNC(=S)Nc2cccnc2)c2nnn(Cc3ccccc3)c2n1` as the compound, how does the IC50 read?
A: 21.9 µM

Q: With `CCCSc1nc(NCCNC(=S)Nc2cccnc2)c2nnn(CCc3c[nH]c4ccccc34)c2n1` as the compound, how does the IC50 read?
A: 27.4 µM

System: NCI-H1650
Assay: Induction of apoptosis in human NCI-H1650 cells assessed as early apoptotic cells at 4 uM after 24 hrs by Annexin-V-FITC/propidium iodide staining based flow cytometry (reference value: 5.58%)
Type: functional
Settings: not given

Q: For `CCCSc1nc(NCCNC(=S)Nc2cccnc2)c2nnn(CCc3c[nH]c4ccccc34)c2n1`, which Activity is on record?
A: 36.7%

System: NCI-H1650
Assay: Induction of apoptosis in human NCI-H1650 cells assessed as increase in cleaved caspase-9 level up to 8 uM after 24 hrs by Western blot analysis
Type: functional, cell-based
Settings: not given

Q: With `CCCSc1nc(NCCNC(=S)Nc2cccnc2)c2nnn(CCc3c[nH]c4ccccc34)c2n1` as the compound, how does the Activity read?
A: Active

System: NCI-H1650
Assay: Induction of apoptosis in human NCI-H1650 cells assessed as early apoptotic cells at 2 uM after 24 hrs by Annexin-V-FITC/propidium iodide staining based flow cytometry (reference value: 5.58%)
Type: functional
Settings: not given

Q: Which Activity does the source give for `CCCSc1nc(NCCNC(=S)Nc2cccnc2)c2nnn(CCc3c[nH]c4ccccc34)c2n1` here?
A: 35.5%

System: MGC-803
Assay: Antiproliferative activity against human MGC803 cells after 48 hrs by MTT assay
Type: functional, cell-based
Settings: MGC-803, 48 h

Q: Which IC50 does the source give for `CCCSc1nc(NCCNC(=S)Nc2cccnc2)c2nnn(Cc3ccccc3)c2n1` here?
A: 24 µM

Q: For `CCCSc1nc(NCCNC(=S)Nc2cccnc2)c2nnn(CCc3c[nH]c4ccccc34)c2n1`, which IC50 is on record?
A: 9.21 µM

System: NCI-H1650
Assay: Cell cycle arrest in human NCI-H1650 cells assessed as accumulation at S phase at 2 uM after 24 hrs by propidium iodide staining-based flow cytometry (reference value: 36.2%)
Type: functional
Settings: not given

Q: Which Activity does the source give for `CCCSc1nc(NCCNC(=S)Nc2cccnc2)c2nnn(CCc3c[nH]c4ccccc34)c2n1` here?
A: 35.1%

System: NCI-H1650
Assay: Induction of apoptosis in human NCI-H1650 cells assessed as late apoptotic cells at 4 uM after 24 hrs by Annexin-V-FITC/propidium iodide staining based flow cytometry (reference value: 7.64%)
Type: functional
Settings: not given

Q: With `CCCSc1nc(NCCNC(=S)Nc2cccnc2)c2nnn(CCc3c[nH]c4ccccc34)c2n1` as the compound, how does the Activity read?
A: 15.1%

System: NCI-H1650
Assay: Cell cycle arrest in human NCI-H1650 cells assessed as accumulation at G2/M phase at 2 uM after 24 hrs by propidium iodide staining-based flow cytometry (reference value: 12.4%)
Type: functional
Settings: not given

Q: With `CCCSc1nc(NCCNC(=S)Nc2cccnc2)c2nnn(CCc3c[nH]c4ccccc34)c2n1` as the compound, how does the Activity read?
A: 23.2%

System: NCI-H1650
Assay: Anticlonogenic activity against human NCI-H1650 cells assessed as inhibition of colony formation after 9 days by crystal violet staining-based assay
Type: functional, cell-based
Settings: not given

Q: Which inhibition does the source give for `CCCSc1nc(NCCNC(=S)Nc2cccnc2)c2nnn(CCc3c[nH]c4ccccc34)c2n1` here?
A: Dose-dependent effect

System: NCI-H1650
Assay: Cell cycle arrest in human NCI-H1650 cells assessed as accumulation at G1 phase at 2 uM after 24 hrs by propidium iodide staining-based flow cytometry (reference value: 55.7%)
Type: functional
Settings: not given

Q: For `CCCSc1nc(NCCNC(=S)Nc2cccnc2)c2nnn(CCc3c[nH]c4ccccc34)c2n1`, which Activity is on record?
A: 30.6%

System: NCI-H1650
Assay: Anticlonogenic activity against human NCI-H1650 cells assessed as inhibition of colony formation at 10 uM after 9 days by crystal violet staining-based assay relative to control
Type: functional
Settings: NCI-H1650, 216 h

Q: With `CCCSc1nc(NCCNC(=S)Nc2cccnc2)c2nnn(CCc3c[nH]c4ccccc34)c2n1` as the compound, how does the inhibition at 10 µM read?
A: ≤ 68%

System: NCI-H1650
Assay: Induction of apoptosis in human NCI-H1650 cells assessed as increase in Bax expression measured after 24 hrs by Western blot analysis
Type: functional, cell-based
Settings: not given

Q: With `CCCSc1nc(NCCNC(=S)Nc2cccnc2)c2nnn(CCc3c[nH]c4ccccc34)c2n1` as the compound, how does the Activity read?
A: Dose-dependent effect

System: NCI-H1650
Assay: Induction of apoptosis in human NCI-H1650 cells assessed as increase in cleaved caspase-3 level up to 8 uM after 24 hrs by Western blot analysis
Type: functional, cell-based
Settings: not given

Q: Which Activity does the source give for `CCCSc1nc(NCCNC(=S)Nc2cccnc2)c2nnn(CCc3c[nH]c4ccccc34)c2n1` here?
A: Active

System: NCI-H1650
Assay: Induction of apoptosis in human NCI-H1650 cells assessed as late apoptotic cells at 2 uM after 24 hrs by Annexin-V-FITC/propidium iodide staining based flow cytometry (reference value: 7.64%)
Type: functional
Settings: not given

Q: With `CCCSc1nc(NCCNC(=S)Nc2cccnc2)c2nnn(CCc3c[nH]c4ccccc34)c2n1` as the compound, how does the Activity read?
A: 12.3%

System: not listed separately
Assay: Selectivity index, ratio of IC50 for human GES-1 cells to IC50 for human NCI-H1650 cells
Type: toxicity
Settings: GES-1 cells versus NCI-H1650 cells, read-out: Ratio IC50

Q: Which selectivity ratio does the source give for `CCCSc1nc(NCCNC(=S)Nc2cccnc2)c2nnn(CCc3c[nH]c4ccccc34)c2n1` here?
A: 14.4
